Laboratory results from patent US20230017045A1, “PYRIDINE AND PYRIMIDINE CARBOXYLATE HERBICIDES AND METHODS OF USE THEREOF” (Dow AgroSciences LLC, priority 2017, published 2023).

Each compound was assayed on test plant species (assay: Post-emergent herbicidal activity test (greenhouse, foliar spray, visual growth reduction)). Settings: post-emergence, 336 h, ALOMY: blackgrass (Alopecurus myosuroides), 140 g ai/ha, 14 days after application, read-out: Visual Growth Reduction (%) 14 Days After Application, ALOMY.
Type: in vivo
Description: Post-emergent Test: Seeds or nutlets of the desired test plant species were planted in Sun Gro Metro-Mix® 360 planting mixture, which typically has a pH of 6.0 to 6.8 and an organic matter content of about 30 percent, in plastic pots with a surface area of 64 square centimeters. In some aspects, to ensure good germination and healthy plants, a fungicide treatment and/or other chemical or physical treatment was applied. The plants were grown for 7-21 d in a greenhouse with an approximate 15 h photoperiod which was maintained at 23-29° C. during the day and 22-28° C. during the night. Nutrients and water were added on a regular basis and supplemental lighting was provided with overhead metal halide 1000-Watt lamps as necessary. Plants were used for testing when they reached the first or second true leaf stage. A weighed amount, determined by the highest rate to be tested, of each test compound was placed in a 25 mL glass vial and was dissolved in 4 mL of a 97:3 v/v mixture of acetone and DMSO to obtain concentrated stock solutions. […] The concentrated stock solutions obtained were diluted with 20 mL of an aqueous mixture containing acetone, water, isopropyl alcohol, DMSO, […] crop oil concentrate, and X-77 surfactant in a 48.5:39:10:1.5:1.0:0.02 v/v ratio to obtain spray solutions containing the application rate. Compound requirements are based upon a 12 mL application volume at a rate of 187 liters per hectare (L/ha). Formulated compounds were applied to the plant material with an overhead Mandel track sprayer equipped with […] nozzles calibrated to deliver 187 L/ha over an application area of 0.64 square meters at a spray height of 18 inches (43 cm) above the average plant canopy height. Control plants were sprayed in the same manner with the solvent blank. The treated plants and control plants were placed in a greenhouse as described above and watered by subirrigation to prevent wash-off of the test compounds. After 14 d, the condition of the test plants as compared with that of the nontreated and control plants was determined visually and scored on a scale of 0 to 100 percent where 0 corresponds to no injury and 100 corresponds to complete control. In the reporting of the results, Table A: Percent Growth Reduction Conversion Table was used.
Compound `COC(=O)c1nc(-c2ccc(C(F)(F)F)cc2C(N)=O)c(Cl)cc1Cl` [F147, Methyl 6-(2-carbamoyl-4-(trifluoromethyl)phenyl)-3,5-dichloropicolinate] has a pest or weed control at 140 g/ha of 0 to 29%.
Compound `COC(=O)c1nc(-c2c(Cl)cc(C(F)(F)F)cc2Cl)ccc1Cl` [F88, Methyl 3-chloro-6-(2,6-dichloro-4-(trifluoromethyl)phenyl)picolinate] has a pest or weed control at 140 g/ha of 60 to 74%.

Same assay, conditions: post-emergence, 336 h, AMARE: redroot pigweed (Amaranthus retroflexus), 140 g ai/ha, 14 days after application, read-out: Visual Growth Reduction (%) 14 Days After Application, AMARE
Compound `COC(=O)c1nc(-c2ccc(C(F)(F)F)cc2C(N)=O)c(Cl)cc1Cl` [F147, Methyl 6-(2-carbamoyl-4-(trifluoromethyl)phenyl)-3,5-dichloropicolinate] has a pest or weed control at 140 g/ha of 45 to 59%.
`COC(=O)c1nc(-c2c(Cl)cc(C(F)(F)F)cc2Cl)ccc1Cl` [F88, Methyl 3-chloro-6-(2,6-dichloro-4-(trifluoromethyl)phenyl)picolinate] was tested, and the pest or weed control at 140 g/ha was 95 to 100%.

Same assay, conditions: post-emergence, 336 h, AVEFA: wild oat (Avena fatua), 140 g ai/ha, 14 days after application, read-out: Visual Growth Reduction (%) 14 Days After Application, AVEFA
Compound `COC(=O)c1nc(-c2ccc(C(F)(F)F)cc2C(N)=O)c(Cl)cc1Cl` [F147, Methyl 6-(2-carbamoyl-4-(trifluoromethyl)phenyl)-3,5-dichloropicolinate] has a pest or weed control at 140 g/ha of 0 to 29%.
With `COC(=O)c1nc(-c2c(Cl)cc(C(F)(F)F)cc2Cl)ccc1Cl` [F88, Methyl 3-chloro-6-(2,6-dichloro-4-(trifluoromethyl)phenyl)picolinate] the pest or weed control at 140 g/ha was 0 to 29%.

Same assay, conditions: post-emergence, 336 h, CHEAL: lambsquarters (Chenopodium album), 140 g ai/ha, 14 days after application, read-out: Visual Growth Reduction (%) 14 Days After Application, CHEAL
In the case of `COC(=O)c1nc(-c2ccc(C(F)(F)F)cc2C(N)=O)c(Cl)cc1Cl` [F147, Methyl 6-(2-carbamoyl-4-(trifluoromethyl)phenyl)-3,5-dichloropicolinate], the pest or weed control at 140 g/ha is reported as 30 to 44%.
With `COC(=O)c1nc(-c2c(Cl)cc(C(F)(F)F)cc2Cl)ccc1Cl` [F88, Methyl 3-chloro-6-(2,6-dichloro-4-(trifluoromethyl)phenyl)picolinate] the pest or weed control at 140 g/ha was 95 to 100%.

Same assay, conditions: post-emergence, 336 h, CIRAR: canada thistle (Cirsium arvense), 140 g ai/ha, 14 days after application, read-out: Visual Growth Reduction (%) 14 Days After Application, CIRAR
Work on `COC(=O)c1nc(-c2ccc(C(F)(F)F)cc2C(N)=O)c(Cl)cc1Cl` [F147, Methyl 6-(2-carbamoyl-4-(trifluoromethyl)phenyl)-3,5-dichloropicolinate] yielded a pest or weed control at 140 g/ha of 0 to 29%.
`COC(=O)c1nc(-c2c(Cl)cc(C(F)(F)F)cc2Cl)ccc1Cl` [F88, Methyl 3-chloro-6-(2,6-dichloro-4-(trifluoromethyl)phenyl)picolinate] gave a pest or weed control at 140 g/ha of 85 to 94%.

Same assay, conditions: post-emergence, 336 h, CYPES: yellow nutsedge (Cyperus esculentus), 140 g ai/ha, 14 days after application, read-out: Visual Growth Reduction (%) 14 Days After Application, CYPES
`COC(=O)c1nc(-c2ccc(C(F)(F)F)cc2C(N)=O)c(Cl)cc1Cl` [F147, Methyl 6-(2-carbamoyl-4-(trifluoromethyl)phenyl)-3,5-dichloropicolinate] was tested, and the pest or weed control at 140 g/ha was 0 to 29%.
Compound `COC(=O)c1nc(-c2c(Cl)cc(C(F)(F)F)cc2Cl)ccc1Cl` [F88, Methyl 3-chloro-6-(2,6-dichloro-4-(trifluoromethyl)phenyl)picolinate] has a pest or weed control at 140 g/ha of 0 to 29%.

Same assay, conditions: post-emergence, 336 h, DIGSA: crabgrass (Digitaria sanguinalis), 140 g ai/ha, 14 days after application, read-out: Visual Growth Reduction (%) 14 Days After Application, DIGSA
In the case of `COC(=O)c1nc(-c2ccc(C(F)(F)F)cc2C(N)=O)c(Cl)cc1Cl` [F147, Methyl 6-(2-carbamoyl-4-(trifluoromethyl)phenyl)-3,5-dichloropicolinate], the pest or weed control at 140 g/ha is reported as 0 to 29%.
With `COC(=O)c1nc(-c2c(Cl)cc(C(F)(F)F)cc2Cl)ccc1Cl` [F88, Methyl 3-chloro-6-(2,6-dichloro-4-(trifluoromethyl)phenyl)picolinate] the pest or weed control at 140 g/ha was 85 to 94%.

Same assay, conditions: post-emergence, 336 h, ECHCG: barnyardgrass (Echinochloa crus-galli), 140 g ai/ha, 14 days after application, read-out: Visual Growth Reduction (%) 14 Days After Application, ECHCG
Compound `COC(=O)c1nc(-c2ccc(C(F)(F)F)cc2C(N)=O)c(Cl)cc1Cl` [F147, Methyl 6-(2-carbamoyl-4-(trifluoromethyl)phenyl)-3,5-dichloropicolinate] has a pest or weed control at 140 g/ha of 0 to 29%.
With `COC(=O)c1nc(-c2c(Cl)cc(C(F)(F)F)cc2Cl)ccc1Cl` [F88, Methyl 3-chloro-6-(2,6-dichloro-4-(trifluoromethyl)phenyl)picolinate] the pest or weed control at 140 g/ha was 75 to 84%.

Same assay, conditions: post-emergence, 336 h, IPOHE: ivy-leaf morning glory (Ipomoea hederacea), 140 g ai/ha, 14 days after application, read-out: Visual Growth Reduction (%) 14 Days After Application, IPOHE
Compound `COC(=O)c1nc(-c2ccc(C(F)(F)F)cc2C(N)=O)c(Cl)cc1Cl` [F147, Methyl 6-(2-carbamoyl-4-(trifluoromethyl)phenyl)-3,5-dichloropicolinate] has a pest or weed control at 140 g/ha of 30 to 44%.
Compound `COC(=O)c1nc(-c2c(Cl)cc(C(F)(F)F)cc2Cl)ccc1Cl` [F88, Methyl 3-chloro-6-(2,6-dichloro-4-(trifluoromethyl)phenyl)picolinate] has a pest or weed control at 140 g/ha of 75 to 84%.

Same assay, conditions: post-emergence, 336 h, KCHSC: kochia (Bassia scoparia), 140 g ai/ha, 14 days after application, read-out: Visual Growth Reduction (%) 14 Days After Application, KCHSC
`COC(=O)c1nc(-c2ccc(C(F)(F)F)cc2C(N)=O)c(Cl)cc1Cl` [F147, Methyl 6-(2-carbamoyl-4-(trifluoromethyl)phenyl)-3,5-dichloropicolinate] was tested, and the pest or weed control at 140 g/ha was 0 to 29%.
Compound `COC(=O)c1nc(-c2c(Cl)cc(C(F)(F)F)cc2Cl)ccc1Cl` [F88, Methyl 3-chloro-6-(2,6-dichloro-4-(trifluoromethyl)phenyl)picolinate] has a pest or weed control at 140 g/ha of 45 to 59%.

Same assay, conditions: post-emergence, 336 h, ORYSA: rice (Oryza sativa), 140 g ai/ha, 14 days after application, read-out: Visual Growth Reduction (%) 14 Days After Application, ORYSA
`COC(=O)c1nc(-c2ccc(C(F)(F)F)cc2C(N)=O)c(Cl)cc1Cl` [F147, Methyl 6-(2-carbamoyl-4-(trifluoromethyl)phenyl)-3,5-dichloropicolinate] was tested, and the pest or weed control at 140 g/ha was 0 to 29%.
In the case of `COC(=O)c1nc(-c2c(Cl)cc(C(F)(F)F)cc2Cl)ccc1Cl` [F88, Methyl 3-chloro-6-(2,6-dichloro-4-(trifluoromethyl)phenyl)picolinate], the pest or weed control at 140 g/ha is reported as 0 to 29%.

Same assay, conditions: post-emergence, 336 h, SETFA: giant foxtail (Setaria faberi), 140 g ai/ha, 14 days after application, read-out: Visual Growth Reduction (%) 14 Days After Application, SETFA
`COC(=O)c1nc(-c2ccc(C(F)(F)F)cc2C(N)=O)c(Cl)cc1Cl` [F147, Methyl 6-(2-carbamoyl-4-(trifluoromethyl)phenyl)-3,5-dichloropicolinate] showed a pest or weed control at 140 g/ha of 0 to 29%.
`COC(=O)c1nc(-c2c(Cl)cc(C(F)(F)F)cc2Cl)ccc1Cl` [F88, Methyl 3-chloro-6-(2,6-dichloro-4-(trifluoromethyl)phenyl)picolinate] showed a pest or weed control at 140 g/ha of 85 to 94%.

Same assay, conditions: post-emergence, 336 h, SORVU: grain sorghum (Sorghum vulgare), 140 g ai/ha, 14 days after application, read-out: Visual Growth Reduction (%) 14 Days After Application, SORVU
For `COC(=O)c1nc(-c2ccc(C(F)(F)F)cc2C(N)=O)c(Cl)cc1Cl` [F147, Methyl 6-(2-carbamoyl-4-(trifluoromethyl)phenyl)-3,5-dichloropicolinate], the pest or weed control at 140 g/ha was 0 to 29%.
Work on `COC(=O)c1nc(-c2c(Cl)cc(C(F)(F)F)cc2Cl)ccc1Cl` [F88, Methyl 3-chloro-6-(2,6-dichloro-4-(trifluoromethyl)phenyl)picolinate] yielded a pest or weed control at 140 g/ha of 85 to 94%.

Same assay, conditions: post-emergence, 336 h, STEME: common chickweed (Stellaria media), 140 g ai/ha, 14 days after application, read-out: Visual Growth Reduction (%) 14 Days After Application, STEME
`COC(=O)c1nc(-c2ccc(C(F)(F)F)cc2C(N)=O)c(Cl)cc1Cl` [F147, Methyl 6-(2-carbamoyl-4-(trifluoromethyl)phenyl)-3,5-dichloropicolinate] gave a pest or weed control at 140 g/ha of 0 to 29%.
`COC(=O)c1nc(-c2c(Cl)cc(C(F)(F)F)cc2Cl)ccc1Cl` [F88, Methyl 3-chloro-6-(2,6-dichloro-4-(trifluoromethyl)phenyl)picolinate] gave a pest or weed control at 140 g/ha of 0 to 29%.

Same assay, conditions: post-emergence, 336 h, TRZAS: wheat, spring (Triticum aestivum), 140 g ai/ha, 14 days after application, read-out: Visual Growth Reduction (%) 14 Days After Application, TRZAS
With `COC(=O)c1nc(-c2ccc(C(F)(F)F)cc2C(N)=O)c(Cl)cc1Cl` [F147, Methyl 6-(2-carbamoyl-4-(trifluoromethyl)phenyl)-3,5-dichloropicolinate] the pest or weed control at 140 g/ha was 0 to 29%.
For `COC(=O)c1nc(-c2c(Cl)cc(C(F)(F)F)cc2Cl)ccc1Cl` [F88, Methyl 3-chloro-6-(2,6-dichloro-4-(trifluoromethyl)phenyl)picolinate], the pest or weed control at 140 g/ha was 30 to 44%.
